Patent US20140018380A1, “BICYCLIC HETEROARYL COMPOUNDS AS GPR119 RECEPTOR AGONISTS” (CENTAURUS BIOPHARMA CO., LTD., priority 2011, published 2014)

Target: T1, human GPR119 (Homo sapiens, UniProt Q8TDV5)
T1 construct: host or cells: CHO cells (American Type Culture Collection)
T1 sequence (Q8TDV5 1-335): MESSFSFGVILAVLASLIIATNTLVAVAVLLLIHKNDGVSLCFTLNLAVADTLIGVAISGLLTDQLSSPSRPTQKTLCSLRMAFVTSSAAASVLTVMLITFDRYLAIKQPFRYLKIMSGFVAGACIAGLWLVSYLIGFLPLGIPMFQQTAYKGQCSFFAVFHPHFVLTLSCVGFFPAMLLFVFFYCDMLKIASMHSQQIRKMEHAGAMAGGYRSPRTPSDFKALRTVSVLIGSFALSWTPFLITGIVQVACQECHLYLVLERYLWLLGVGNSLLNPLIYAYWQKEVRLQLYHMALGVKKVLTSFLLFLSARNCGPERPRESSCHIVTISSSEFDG
Test: cAMP assay (HTRF) with human GPR119 stable transfected CHO cells
Format: cell-based
Conditions: functional agonist activity; intracellular cAMP (HTRF) in human GPR119 stable transfected CHO cells, 30 min at 37° C.
Experimental: Testing of Compounds of the Invention In Vitro (cAMP Assay)
The functional agonist activities of compounds of the invention were characterized using a cAMP assay with human GPR119 stable transfected Chinese hamster ovary (CHO) cells (American Type Culture Collection, Manassas Va., USA). CHO cells were stable transfected with GPR119/pcDNA3.0 (SC307189, Origene). Transfected cells were then selected and maintained in culture media containing […] geneticin. Stable clones were obtained by limiting dilution and the expression of human-GPR119 in CHO cells was confirmed by HTRF (Homogeneous Time-Resolved Fluorescence) cAMP assay. The clones generating the best agonist stimulated signal window were selected for the cAMP assay development.
The cells were cultured in Dulbecco's Modified Eagle Medium (Invitrogen Corporation, Carlsbad, Calif., USA) containing 10% Fetal bovine serum, 1% Pen/Strep and […] G418 and grown in 75 cm2 tissue culture flasks until they reached 75-80% confluence.
The cells were harvested 16 hours prior to assay with 1 ml 0.05% Trypsine, washed with PBS and then plated into 96-well plates (8000 cells/well) containing DMEM medium and 10% BSA. Prior to assay, the cells were washed with assay stimulation buffer (HBSS containing 10 mM IBMX, 20 mM HEPES, 0.1% BSA) twice. Then cells were incubated for 30 min at 37° C. in the absence or presence of varying concentrations of agonists (i.e., the compounds of the present invention) in assay stimulating buffer with 0.1% DMSO. The intracellular levels of cAMP generated in the GPR119 transfected CHO cells were measured using the HTRF kit (CisBio, FR.). In brief, 20 ul d2-labeled cAMP and 20 ul cryptated labeled anti-cAMP antibody were added into 40 ul cells treated with agonist and the plates were incubated for 1 hour at room temperature in the dark. Cells were then transferred into white 96-well plate and the signal generated was measured using Envision (Perkin-Elmer, Norwalk, Conn.). EC50 values were calculated using the GraphPad Prism 5 program.

SMILES	EC50
CCc1cnc(N2CCC(n3ccc4cc(-c5ccc(S(C)(=O)=O)cc5)ccc43)CC2)nc1 [Example 1, 1-(1-(5-ethylpyrimidin-2-yl)piperidin-4-yl)-5-(4-(methylsulfonyl)phenyl)-1H-indole]	< 300 nM
CCc1cnc(N2CCC(n3nnc4cc(-c5ccc(-n6cnnn6)cc5)cnc43)CC2)nc1 [Example 2, 6-(4-(1H-tetrazol-1-yl)phenyl)-3-(1-(5-ethylpyrimidin-2-yl)piperidin-4-yl)-3H-[1,2,3]triazol o[4,5-b]pyridine]	< 500 nM
CCc1cnc(N2CCC(n3ccc4cc(-c5ccc(-n6cnnn6)cc5)ccc43)CC2)nc1 [Example 3, 5-(4-(1H-tetrazol-1-yl)phenyl)-1-(1-(5-ethylpyrimidin-2-yl)piperidin-4-yl)-1H-indole]	< 300 nM
CCc1cnc(N2CCC(n3cc(C)c4cc(-c5ccc(S(C)(=O)=O)cc5)ccc43)CC2)nc1 [Example 5, 1-(1-(5-ethylpyrimidin-2-yl)piperidin-4-yl)-3-methyl-5-(4-(methylsulfone)phenyl)-1H-indole]	< 1000 nM
CCc1cnc(N2CCC(n3ccc4cc(-c5ccc(S(C)(=O)=O)cc5)c(F)cc43)CC2)nc1 [Example 6, 1-(1-(5-ethylpyrimidin-2-yl)piperidin-4-yl)-6-fluoro-5-(4-(methylsulfony)phenyl)-1H-indole]	< 100 nM
CC(C)(C)OC(=O)N1CCC(n2ccc3cc(-c4ccc(S(C)(=O)=O)cc4)c(F)cc32)CC1 [Example 7, tert-butyl 4-(6-fluoro-5-(4-(methylsulfonyl)phenyl)-1H-indol-1-yl)piperidine-1-carboxylate]	< 100 nM
CCc1cnc(N2CCC(n3cc(Cl)c4cc(-c5ccc(S(C)(=O)=O)cc5)ccc43)CC2)nc1 [Example 8, 3-chloro-1-(1-(5-ethylpyrimidin-2-yl)piperidin-4-yl)-5-(4-(methylsulfonl)phenyl)-1H-indole]	< 500 nM
CCc1cnc(N2CCC(n3ccc4cc(-c5ccc(S(C)(=O)=O)cc5)ncc43)CC2)nc1 [Example 9, 1-(1-(5-ethylpyrimidin-2-yl)piperidin-4-yl)-5-(4-(methylsulfonyl)phenyl)-1H-pyrrolo[2,3-c]pyridine]	< 200 nM
CC(C)(C)OC(=O)N1CCC(n2ccc3cc(-c4ccc(S(C)(=O)=O)cc4)ccc32)CC1 [Example 10, tert-butyl 4-(5-(4-(methylsulfonyl)phenyl)-1H-indol-1-yl)piperidine-1-carboxylate]	< 200 nM
CCc1cnc(N2CCC(n3ccc4cc(-c5ccc(S(C)(=O)=O)cc5F)ccc43)CC2)nc1 [Example 11, 1-(1-(5-ethylpyrimidin-2-yl)piperidin-4-yl)-5-(2-fluoro-4-(methylsulfony)phenyl)-1H-indole]	< 500 nM
CCc1cnc(N2CCC(n3ccc4cc(-c5ccc(-n6cnnn6)cc5)c(F)cc43)CC2)nc1 [Example 12, 5-(4-(1H-tetrazol-1-yl)phenyl)-1-(1-(5-ethylpyrimidin-2-yl)piperidin-4-yl)-6-fluoro-1H-indole]	< 2000 nM
CCc1cnc(N2CCC(n3ccc4cc(-c5ccc(C#N)c(F)c5)c(F)cc43)CC2)nc1 [Example 13, 4-(1-(1-(5-ethylpyrimidin-2-yl)piperidin-4-yl)-6-fluoro-1H-indol-5-yl)-2-fluorobenzonitrile]	< 500 nM
CCc1cnc(N2CCC(n3ccc4cc(-c5ccc(C#N)cc5)c(F)cc43)CC2)nc1 [Example 14, 4-(1-(1-(5-ethylpyrimidin-2-yl)piperidin-4-yl)-6-fluoro-1H-indol-5-yl)benzonitrile]	< 500 nM
CCc1cnc(N2CCC(n3ccc4cc(-c5ccc(NS(C)(=O)=O)cc5)c(F)cc43)CC2)nc1 [Example 15, N-(4-(1-(1-(5-ethylpyrimidin-2-yl)piperidin-4-yl)-6-fluoro-1H-indol-5-yl)phenyl)methanesulfonamide]	< 1000 nM
CC(C)(C)OC(=O)N1CCC(n2ncc3cc(-c4ccc(S(C)(=O)=O)cc4)ccc32)CC1 [Example 16, tert-butyl 4-(5-(4-(methylsulfonyl)phenyl)-1H-indazol-1-yl)piperidine-1-carboxylate]	< 300 nM
CCc1cnc(N2CCC(n3ncc4cc(-c5ccc(-n6cnnn6)cc5)c(F)cc43)CC2)nc1 [Example 17, 5-(4-(1H-tetrazol-1-yl)phenyl)-1-(1-(5-ethylpyrimidin-2-yl)piperidin-4-yl)-6-fluoro-1H-indazole]	< 50 nM
CCc1cnc(N2CCC(n3ncc4cc(-c5ccc(S(C)(=O)=O)cc5)c(F)cc43)CC2)nc1 [Example 18, 1-(1-(5-ethylpyrimidin-2-yl)piperidin-4-yl)-6-fluoro-5-(4-(methylsulfonyl)phenyl)-1H-indazole]	< 200 nM
CC(C)c1noc(N2CCC(n3ccc4cc(-c5ccc(S(C)(=O)=O)cc5)c(F)cc43)CC2)n1 [Example 19, 5-(4-(6-fluoro-5-(4-(methylsulfonyl)phenyl)-1H-indol-1-yl)piperidin-1-yl)-3-isopropyl-1,2,4-oxadiazole]	< 100 nM
